According to EP0908457B1, “3-(1,2-benzisothiazol- and isoxazol-5-Y1)-2,4(1H,3H)-pyrimidinedione or thione and 3-(1,2-benzisothiazol- and isoxazol-5-y1)-4(3H)-pyrimidinone or thione herbicidal agents” (BASF AKTIENGESELLSCHAFT, priority 1997, dated 1999):

Key:
[1] = system: Cyperus iria; assay: Preemergence weed control under flooded paddy conditions, CYPIR (Rice Flatsedge); type: in vivo; conditions: flooded paddy; for herbicidal effect rating, CYPIR: rated three to four weeks after treatment; for CYPIR: herbicidal effect rating 0-9, three to four weeks after treatment; as to herbicidal effect rating, CYPIR: meaning of each grade not given here
[2] = system: Echinochloa oryzoides (Ard.) Fritsch.; assay: Preemergence weed control under flooded paddy conditions, ECHORC (Watergrass (Calif.)); type: in vivo; conditions: flooded paddy; for herbicidal effect rating, ECHORC: rated three to four weeks after treatment; for ECHORC: herbicidal effect rating 0-9, three to four weeks after treatment; as to herbicidal effect rating, ECHORC: meaning of each grade not given here
[3] = system: Cyperus serotinus, Rottb.; assay: Preemergence weed control under flooded paddy conditions, CYPSE (Flatsedge); type: in vivo; conditions: for herbicidal effect rating, CYPSE: rated three to four weeks after treatment; for CYPSE: herbicidal effect rating 0-9, three to four weeks after treatment; as to herbicidal effect rating, CYPSE: meaning of each grade not given here
[4] = system: Sagittaria pygmaea, L.; assay: Preemergence weed control under flooded paddy conditions, SAGPY (Arrowhead (Pygmaea)); type: in vivo; conditions: flooded paddy; for herbicidal effect rating, SAGPY: rated three to four weeks after treatment; for SAGPY: herbicidal effect rating 0-9, three to four weeks after treatment; as to herbicidal effect rating, SAGPY: meaning of each grade not given here
[5] = system: Oryza sativa, (L.) Tebonnet; assay: Rice tolerance to post-transplant applications under flooded paddy conditions (Example 187), ORYSAT (Rice, Tebonnet); conditions: for herbicidal effect rating ORYSAT: rated three to four weeks after treatment; for ORYSAT: herbicidal effect rating 0-9, three to four weeks after treatment; as to herbicidal effect rating ORYSAT: meaning of each grade not given here
[6] = system: Monochoria vaginalis, Presl.; assay: Preemergence weed control under flooded paddy conditions, MOOVA (Monochoria); type: in vivo; conditions: preemergence weeds, flooded paddy, herbicidal effect rating 0-9, three to four weeks after treatment
[7] = Rate 0.0320 kg/ha, preemergence weeds
[8] = Rate 0.0620 kg/ha, preemergence weeds
[9] = Rate 0.1250 kg/ha, preemergence weeds
[10] = Rate 0.2500 kg/ha, preemergence weeds
[11] = Rate 0.0320 kg/ha, preemergence
[12] = Rate 0.0620 kg/ha, preemergence
[13] = Rate 0.1250 kg/ha, preemergence
[14] = Rate 0.2500 kg/ha, preemergence
[15] = 0.0320 kg/ha, preemergence weeds
[16] = 0.0620 kg/ha, preemergence weeds
[17] = 0.1250 kg/ha, preemergence weeds
[18] = 0.2500 kg/ha, preemergence weeds

COC(=O)C(C)Oc1ccc(OC)cc1-c1nsc2ccc(-n3c(=O)cc(C(F)(F)F)n(C)c3=O)cc12 (stereo not shown) [Example 348, Propionic acid, 2-{2-{5-[3,6-dihydro-3-methyl-2,6-dioxo-4-(trifluoromethyl)-1(2H)-pyrimidinyl]-1,2-benzisothiazol-3-yl}-4-methoxyphenoxy}-, methyl ester]
herbicidal effect rating, CYPIR [1, 7]: 0.0 | herbicidal effect rating, CYPIR [1, 8]: 0.0 | herbicidal effect rating, CYPIR [1, 9]: 6.0 | herbicidal effect rating, CYPIR [1, 10]: 9.0 | herbicidal effect rating, ECHORC [2, 7]: 6.0 | herbicidal effect rating, ECHORC [2, 8]: 6.0 | herbicidal effect rating, ECHORC [2, 9]: 7.0 | herbicidal effect rating, ECHORC [2, 10]: 9.0 | herbicidal effect rating, CYPSE [3, 7]: 0.0 | herbicidal effect rating, CYPSE [3, 8]: 0.0 | herbicidal effect rating, CYPSE [3, 9]: 0.0 | herbicidal effect rating, CYPSE [3, 10]: 0.0 | herbicidal effect rating, SAGPY [4, 7]: 4.0 | herbicidal effect rating, SAGPY [4, 8]: 6.0 | herbicidal effect rating, SAGPY [4, 9]: 7.0 | herbicidal effect rating, SAGPY [4, 10]: 9.0 | herbicidal effect rating ORYSAT ([5]; Rate 0.0320 kg/ha): 2.0 | herbicidal effect rating ORYSAT ([5]; Rate 0.0620 kg/ha): 3.0 | herbicidal effect rating ORYSAT ([5]; Rate 0.1250 kg/ha): 4.0 | herbicidal effect rating ORYSAT ([5]; Rate 0.2500 kg/ha): 5.0

C#CCOC(=O)COc1ccc(OC)cc1-c1nsc2ccc(-n3c(=O)cc(C(F)(F)F)n(C)c3=O)cc12 [Example 349, Acetic acid, {2-{5-[3,6-dihydro-3-methyl-2,6-dioxo-4-(trifluoromethyl)-1(2H)-pyrimidinyl]-1,2-benzisothiazol-3-yl}-4-methoxyphenoxy}-, 2-propynyl ester]
herbicidal effect rating, CYPIR [1, 11]: 0.0 | herbicidal effect rating, CYPIR [1, 12]: 4.0 | herbicidal effect rating, CYPIR [1, 13]: 7.0 | herbicidal effect rating, CYPIR [1, 10]: 7.0 | herbicidal effect rating, ECHORC [2, 11]: 5.0 | herbicidal effect rating, ECHORC [2, 12]: 5.0 | herbicidal effect rating, ECHORC [2, 13]: 6.0 | herbicidal effect rating, ECHORC [2, 10]: 7.0 | herbicidal effect rating, CYPSE [3, 11]: 4.0 | herbicidal effect rating, CYPSE [3, 12]: 4.0 | herbicidal effect rating, CYPSE [3, 13]: 4.0 | herbicidal effect rating, CYPSE [3, 10]: 4.0 | herbicidal effect rating, SAGPY [4, 11]: 4.0 | herbicidal effect rating, SAGPY [4, 12]: 5.0 | herbicidal effect rating, SAGPY [4, 13]: 5.0 | herbicidal effect rating, SAGPY [4, 10]: 6.0 | herbicidal effect rating ORYSAT ([5]; Rate 0.0320 kg/ha): 4.0 | herbicidal effect rating ORYSAT ([5]; Rate 0.0620 kg/ha): 5.0 | herbicidal effect rating ORYSAT ([5]; Rate 0.1250 kg/ha): 7.0 | herbicidal effect rating ORYSAT ([5]; Rate 0.2500 kg/ha): 7.0

C=CCOC(C)c1nsc2ccc(-n3c(=O)cc(C(F)(F)F)n(C)c3=O)cc12 (stereo not shown) [Example 351, 2,4(1H,3H)-Pyrimidinedione, 3-{3-[1-(allyloxy)ethyl]-1,2-benzisothiazol-5-yl}-1-methyl-6-(trifluoromethyl)-]
herbicidal effect rating, CYPIR [1, 11]: 6.0 | herbicidal effect rating, CYPIR [1, 12]: 7.0 | herbicidal effect rating, CYPIR [1, 13]: 7.0 | herbicidal effect rating, CYPIR [1, 14]: 9.0 | herbicidal effect rating, ECHORC [2, 11]: 5.0 | herbicidal effect rating, ECHORC [2, 12]: 6.0 | herbicidal effect rating, ECHORC [2, 13]: 6.0 | herbicidal effect rating, ECHORC [2, 14]: 7.0 | herbicidal effect rating, CYPSE [3, 11]: 0.0 | herbicidal effect rating, CYPSE [3, 12]: 6.0 | herbicidal effect rating, CYPSE [3, 13]: 6.0 | herbicidal effect rating, CYPSE [3, 14]: 8.0 | herbicidal effect rating, SAGPY [4, 11]: 5.0 | herbicidal effect rating, SAGPY [4, 12]: 6.0 | herbicidal effect rating, SAGPY [4, 13]: 7.0 | herbicidal effect rating, SAGPY [4, 14]: 7.0 | herbicidal effect rating ORYSAT ([5]; Rate 0.0320 kg/ha): 7.0 | herbicidal effect rating ORYSAT ([5]; Rate 0.0620 kg/ha): 7.0 | herbicidal effect rating ORYSAT ([5]; Rate 0.1250 kg/ha): 7.0 | herbicidal effect rating ORYSAT ([5]; Rate 0.2500 kg/ha): 9.0

COCCOC(=O)c1nsc2ccc(-n3c(=O)cc(C(F)(F)F)n(C)c3=O)cc12 [Example 411, 1,2-Benzisothiazole-3-carboxylic acid, 5-[3,6-dihydro-3-methyl-2,6-dioxo-4-(trifluoromethyl)-1(2H)-pyrimidinyl]-, 2-methoxyethyl ester]
MOOVA ([6]; 0.0320 kg/ha): 9.0 | MOOVA ([6]; 0.0620 kg/ha): 9.0 | MOOVA ([6]; 0.1250 kg/ha): 9.0 | MOOVA ([6]; 0.2500 kg/ha): 9.0 | CYPIR [1, 15]: 0.0 | CYPIR [1, 16]: 2.0 | CYPIR [1, 17]: 3.0 | CYPIR [1, 18]: 9.0 | ECHORC [2, 15]: 0.0 | ECHORC [2, 16]: 0.0 | ECHORC [2, 17]: 0.0 | ECHORC [2, 18]: 6.0 | CYPSE [3, 15]: 0.0 | CYPSE [3, 16]: 2.0 | CYPSE [3, 17]: 7.0 | CYPSE [3, 18]: 9.0 | ORYSAT ([5]; 0.0320 kg/ha): 0.0 | ORYSAT ([5]; 0.0620 kg/ha): 0.0 | ORYSAT ([5]; 0.1250 kg/ha): 2.0 | ORYSAT ([5]; 0.2500 kg/ha): 5.0

CN(/N=C/c1nsc2ccc(-n3c(=O)cc(C(F)(F)F)n(C)c3=O)cc12)c1ccccc1 [Example 412, 1,2-Benzisothiazole-3-carboxaldehyde, 5-[3,6-dihydro-3-methyl-2,6-dioxo-4-(trifluoromethyl)-1(2H)-pyrimidinyl]-, 3-(methylphenylhydrazone), (E)-]
MOOVA ([6]; 0.0320 kg/ha): 7.0 | MOOVA ([6]; 0.0620 kg/ha): 9.0 | MOOVA ([6]; 0.1250 kg/ha): 9.0 | MOOVA ([6]; 0.2500 kg/ha): 9.0 | CYPIR [1, 15]: 0.0 | CYPIR [1, 16]: 0.0 | CYPIR [1, 17]: 4.0 | CYPIR [1, 18]: 8.0 | ECHORC [2, 15]: 0.0 | ECHORC [2, 16]: 0.0 | ECHORC [2, 17]: 0.0 | CYPSE [3, 15]: 0.0 | CYPSE [3, 16]: 0.0 | CYPSE [3, 17]: 4.0 | CYPSE [3, 18]: 6.0 | ORYSAT ([5]; 0.0320 kg/ha): 0.0 | ORYSAT ([5]; 0.0620 kg/ha): 0.0 | ORYSAT ([5]; 0.1250 kg/ha): 2.0 | ORYSAT ([5]; 0.2500 kg/ha): 4.0

CC(c1ccccc1)S(=O)(=O)NC(=O)c1nsc2ccc(-n3c(=O)cc(C(F)(F)F)n(C)c3=O)cc12 (stereo not drawn) [Example 427, 1,2-Benzisothiazole-3-carboxamide, 5-[3,6-dihydro-3-methyl-2,6-dioxo-4-(trifluoromethyl)-1(2H)-pyrimidinyl]-N-[(alpha-methylbenzyl)-sulfonyl]-]
CYPIR [1, 15]: 7.0 | CYPIR [1, 16]: 7.0 | CYPIR [1, 17]: 7.0 | CYPIR [1, 18]: 9.0 | ECHORC [2, 15]: 7.0 | ECHORC [2, 16]: 7.0 | ECHORC [2, 17]: 9.0 | ECHORC [2, 18]: 9.0 | CYPSE [3, 15]: 0.0 | CYPSE [3, 16]: 0.0 | CYPSE [3, 18]: 4.0 | SAGPY [4, 15]: 4.0 | SAGPY [4, 16]: 5.0 | SAGPY [4, 17]: 6.0 | SAGPY [4, 18]: 9.0 | ORYSAT ([5]; 0.0320 kg/ha): 0.0 | ORYSAT ([5]; 0.0620 kg/ha): 0.0 | ORYSAT ([5]; 0.1250 kg/ha): 1.0 | ORYSAT ([5]; 0.2500 kg/ha): 3.0

CCC(=O)COC(=O)COc1ccc(C)cc1-c1nsc2ccc(-n3c(=O)cc(C(F)(F)F)n(C)c3=O)cc12 [Example 577, Acetic acid, {{2-{5-[3,6-dihydro-3-methyl-2,6-dioxo-4-(trifluoromethyl)-1(2H)-pyrimidinyl]-1,2-benzisothiazol-3-yl}-p-tolyl}oxy}-, 2-oxobutyl ester]
herbicidal effect rating, CYPIR [1, 11]: 2.0 | herbicidal effect rating, CYPIR [1, 12]: 4.0 | herbicidal effect rating, CYPIR [1, 13]: 7.0 | herbicidal effect rating, CYPIR [1, 14]: 9.0 | herbicidal effect rating, ECHORC [2, 11]: 6.0 | herbicidal effect rating, ECHORC [2, 12]: 7.0 | herbicidal effect rating, ECHORC [2, 13]: 7.0 | herbicidal effect rating, ECHORC [2, 14]: 9.0 | herbicidal effect rating, CYPSE [3, 11]: 0.0 | herbicidal effect rating, CYPSE [3, 12]: 3.0 | herbicidal effect rating, CYPSE [3, 13]: 3.0 | herbicidal effect rating, CYPSE [3, 14]: 3.0 | herbicidal effect rating, SAGPY [4, 11]: 4.0 | herbicidal effect rating, SAGPY [4, 12]: 6.0 | herbicidal effect rating, SAGPY [4, 13]: 6.0 | herbicidal effect rating, SAGPY [4, 14]: 6.0 | herbicidal effect rating ORYSAT ([5]; Rate 0.0320 kg/ha): 4.0 | herbicidal effect rating ORYSAT ([5]; Rate 0.0620 kg/ha): 5.0 | herbicidal effect rating ORYSAT ([5]; Rate 0.1250 kg/ha): 5.0 | herbicidal effect rating ORYSAT ([5]; Rate 0.2500 kg/ha): 9.0

Cn1c(C(F)(F)F)cc(=O)n(-c2ccc3snc(C(C#N)=Cc4cnc[nH]4)c3c2)c1=O [Example 595, 1,2-Benzisothiazole-3-acetonitrile, 5-[3,6-dihydro-3-methyl-2,6-dioxo-4-(trifluoromethyl)-1(2H)-pyrimidinyl]-alpha-(imidazol-5-ylmethylene)-]
herbicidal effect rating, CYPIR [1, 12]: 0.0 | herbicidal effect rating, CYPIR [1, 13]: 2.0 | herbicidal effect rating, CYPIR [1, 14]: 4.0 | herbicidal effect rating, ECHORC [2, 12]: 0.0 | herbicidal effect rating, ECHORC [2, 13]: 3.0 | herbicidal effect rating, ECHORC [2, 14]: 4.0 | herbicidal effect rating, CYPSE [3, 13]: 0.0 | herbicidal effect rating, SAGPY [4, 12]: 0.0 | herbicidal effect rating, SAGPY [4, 13]: 0.0 | herbicidal effect rating, SAGPY [4, 14]: 0.0 | herbicidal effect rating ORYSAT ([5]; Rate 0.0620 kg/ha): 0.0 | herbicidal effect rating ORYSAT ([5]; Rate 0.1250 kg/ha): 0.0 | herbicidal effect rating ORYSAT ([5]; Rate 0.2500 kg/ha): 2.0
